According to US20260078130A1, “NAMPT MODULATORS, PREPARATIONS, AND USES THEREOF” (SIRONAX LTD., priority 2022, published 2026):
Read-outs that look alike come from different tables or passages of the source.

Assays:
[1] = system: endogenous NAMPT in U2OS cells; assay: Cellular NAD+ modulation assay (NAD/NADH-Glo, U2OS cells); format: cell-based; settings: Homo sapiens; for maximal fold induction: read-out: Cellular Emax
In short: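 Endogenous NAMPT stimulation in U2OS cells treated with compound dilution series for 24 h at 37 °C. Cells lysed with DTAB base, acid-treated 15 min at 60 °C, neutralized, NAD+ read by NAD/NADH-Glo luminescence after 40 min at room temperature. EC50 and Emax (fold over DMSO) derived.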

[2] = target: T1, human enzyme NAMPT (full length) (Homo sapiens, UniProt P43490); assay: NMN fluorescence biochemical assay (stimulation of NMN synthesis by NAMPT); settings: for EC50: concentration giving half-maximal activation, read-out: Enzymatic EC50; for Enzymatic Emax: fold change of maximal activation compared to DMSO
T1 construct: human enzyme NAMPT (full length)
In short: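 Full-length human NAMPT (100 nM) was preincubated 15 min at 37 °C with compound in 50 mM Tris-HCl pH 7.5, 10 mM MgCl2, 2 mM DTT, then reacted 1 h at 37 °C with 50 μM NAM, 100 μM PRPP, 4 mM ATP (stated solution concentrations). NMN was derivatised with acetophenone/KOH then formic acid and read at Ex/Em 382/445 nm; EC50 and Emax (fold over DMSO) reported.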

[3] = 24 hours incubation, cellular NAD+
[4] = NMN fluorescence assay, purified human NAMPT 100 nM
[5] = 24 hours incubation with compound
[6] = NMN synthesis by purified human NAMPT (100 nM)

T1 sequence (P43490 whole entry): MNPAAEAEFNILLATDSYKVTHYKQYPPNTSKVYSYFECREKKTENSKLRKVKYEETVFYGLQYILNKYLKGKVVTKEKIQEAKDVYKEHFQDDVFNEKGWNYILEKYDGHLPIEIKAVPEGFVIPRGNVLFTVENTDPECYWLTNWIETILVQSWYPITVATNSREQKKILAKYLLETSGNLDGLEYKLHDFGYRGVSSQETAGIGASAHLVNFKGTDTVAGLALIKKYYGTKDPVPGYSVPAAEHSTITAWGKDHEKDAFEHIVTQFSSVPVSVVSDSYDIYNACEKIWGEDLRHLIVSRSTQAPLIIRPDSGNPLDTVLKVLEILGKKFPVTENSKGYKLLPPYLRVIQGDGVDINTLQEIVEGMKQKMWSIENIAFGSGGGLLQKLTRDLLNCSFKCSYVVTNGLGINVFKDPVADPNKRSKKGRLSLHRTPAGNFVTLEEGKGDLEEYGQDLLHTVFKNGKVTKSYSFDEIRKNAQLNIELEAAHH

SMILES	EC50 [1, 3] [µM]	maximal fold induction [1, 3]	EC50 [2, 4] [µM]	Enzymatic Emax [2]	EC50 [1, 5] [µM]	maximal fold induction [1, 5]	EC50 [2, 6] [µM]
Cn1ncc(Cl)c1CC1c2cc(Cl)ccc2C(=O)N1CC1CC2(CNC(=O)O2)C1 (centres unmarked) [Compound 474, 2-((5-chloro-3-((4-chloro-1-methyl-1H-pyrazol-5-yl)methyl)-1-oxoisoindolin-2-yl)methyl)-5-oxa-7-azaspiro[3.4]octan-6-one]	< 0.5	> 1.5	0.5 to 5	B (3≥B>2)	–	–	–
COc1ccc(CN2C(=O)c3ccccc3C2Cc2c(Cl)ccc(=O)n2C)cc1 (centres unmarked) [Compound 589, 3-((3-chloro-1-methyl-6-oxo-1,6-dihydropyridin-2-yl)methyl)-2-(4-methoxybenzyl)isoindolin-1-one]	< 0.5	> 1.5	0.5 to 5	A (A>3)	–	–	–
Cc1ccnc(C#N)c1CC1c2cccc(F)c2C(=O)N1Cc1ccc2[nH]nnc2c1 (centres unmarked) [Compound 356, 3-((2-((1H-benzo[d][1,2,3]triazol-5-yl)methyl)-4-fluoro-3-oxoisoindolin-1-yl)methyl)-4-methylpicolinonitrile]	< 0.5	> 1.5	< 0.5	A (A>3)	–	–	–
COc1ccc(CN2C(=O)c3ncsc3C2Cc2c(Cl)cnn2C)cc1 (centres unmarked) [Compound 615, 6-((4-chloro-1-methyl-1H-pyrazol-5-yl)methyl)-5-(4-methoxybenzyl)-5,6-dihydro-4H-pyrrolo[3,4-d]thiazol-4-one]	0.5 to 5	1.2 to 1.5	≥ 5	B (3≥B>2)	–	–	–
Cc1nnn2cc(CN3C(=O)c4ccccc4C3Cc3c(Cl)cnn3C)ccc12 (centres unmarked) [Compound 627, 3-((4-chloro-1-methyl-1H-pyrazol-5-yl)methyl)-2-((3-methyl-[1,2,3]triazolo[1,5-a]pyridin-6-yl)methyl)isoindolin-1-one]	0.5 to 5	1.2 to 1.5	≥ 5	B (3≥B>2)	–	–	–
O=C1c2ccccc2C(Cc2nn(C3CC4(COC4)C3)cc2Cl)N1Cc1ccc2[nH]nnc2c1 (centres unmarked) [Compound 412, 2-((1H-benzo[d][1,2,3]triazol-5-yl)methyl)-3-((4-chloro-1-(2-oxaspiro[3.3]heptan-6-yl)-1H-pyrazol-3-yl)methyl)isoindolin-1-one]	5 to 50	1.2 to 1.5	< 0.5	B (3≥B>2)	–	–	–
O=C1c2ccccc2CN1Cc1ccc(O)cc1 [Compound 12, 2-(4-hydroxybenzyl)isoindolin-1-one]	–	–	–	B (3≥B>2)	5 to 50	1.2 to 1.5	≥ 5
COc1ccc(CN2C(Cc3c(Cl)cnn3C)c3ccccc3S2(=O)=O)cc1 (centres unmarked) [Compound 641, 3-((4-chloro-1-methyl-1H-pyrazol-5-yl)methyl)-2-(4-methoxybenzyl)-2,3-dihydrobenzo[d]isothiazole 1,1-dioxide]	< 0.5	1.2 to 1.5	≥ 5	A (A>3)	–	–	–
Cn1ncc(Cl)c1CC1c2ccccc2CCN1CC1CC2(CNC(=O)O2)C1 (centres unmarked) [Compound 610, 2-((1-((4-chloro-1-methyl-1H-pyrazol-5-yl)methyl)-3,4-dihydroisoquinolin-2(1H)-yl)methyl)-5-oxa-7-azaspiro[3.4]octan-6-one]	0.5 to 5	1.2 to 1.5	≥ 5	B (3≥B>2)	–	–	–
CN1CC(c2nn(C)c(CC3c4ccccc4C(=O)N3CC3CC4(CNC(=O)O4)C3)c2Cl)C1 (centres unmarked) [Compound 509, 2-((1-((4-chloro-1-methyl-3-(1-methylazetidin-3-yl)-1H-pyrazol-5-yl)methyl)-3-oxoisoindolin-2-yl)methyl)-5-oxa-7-azaspiro[3.4]octan-6-one]	0.5 to 5	> 1.5	< 0.5	A (A>3)	–	–	–
COc1ncc(CN2C(=O)c3ccccc3C2Cc2c(Cl)cnn2C)o1 (centres unmarked) [Compound 603, 3-((4-chloro-1-methyl-1H-pyrazol-5-yl)methyl)-2-((2-methoxyoxazol-5-yl)methyl)isoindolin-1-one]	0.5 to 5	1.2 to 1.5	≥ 5	C (2≥C)	–	–	–
CC1c2cc(C3COC3)ccc2C(=O)N1Cc1ccc2[nH]c(=O)oc2c1 (single isomer, unassigned) [Compound 198]	–	–	–	B (3≥B>2)	0.5 to 5	> 1.5	0.5 to 5
Cn1ncc(Cl)c1CC1c2ccccc2C(=O)N1Cc1ccc2c(c1)ncn2C (centres unmarked) [Compound 585, 3-((4-chloro-1-methyl-1H-pyrazol-5-yl)methyl)-2-((1-methyl-1H-benzo[d]imidazol-5-yl)methyl)isoindolin-1-one]	0.5 to 5	> 1.5	0.5 to 5	B (3≥B>2)	–	–	–
Cn1ncc(Cl)c1CC1c2cc(C(C)(C)O)ccc2C(=O)N1Cc1ccc2[nH]nnc2c1 (centres unmarked) [Compound 382, 2-((1H-benzo[d][1,2,3]triazol-5-yl)methyl)-3-((4-chloro-1-methyl-1H-pyrazol-5-yl)methyl)-5-(2-hydroxypropan-2-yl)isoindolin-1-one]	0.5 to 5	> 1.5	0.5 to 5	B (3≥B>2)	–	–	–
Cn1ncc(Cl)c1CC1c2ccccc2C(=O)N1C/C(F)=C\c1c[nH]nn1 (centres unmarked) [Compound 515, (E)-3-((4-chloro-1-methyl-1H-pyrazol-5-yl)methyl)-2-(2-fluoro-3-(1H-1,2,3-triazol-4-yl)allyl)isoindolin-1-one]	0.5 to 5	> 1.5	≥ 5	B (3≥B>2)	–	–	–
Cc1ccc2c(c1)C(C)N(Cc1ccc3[nH]c(=O)oc3c1)C2=O (single isomer, unassigned) [Compound 163]	–	–	–	A (A>3)	0.5 to 5	> 1.5	≥ 5
Cn1nc(C#N)c(CC2c3ccccc3C(=O)N2Cc2ccc3[nH]nnc3c2)c1Cl (centres unmarked) [Compound 352, 4-((2-((1H-benzo[d][1,2,3]triazol-5-yl)methyl)-3-oxoisoindolin-1-yl)methyl)-5-chloro-1-methyl-1H-pyrazole-3-carbonitrile]	< 0.5	> 1.5	< 0.5	A (A>3)	–	–	–
CC1c2cc(NC3CC4(CNC4)C3)ccc2C(=O)N1Cc1ccc2[nH]c(=O)oc2c1 (centres unmarked) [Compound 79, 6-((5-((2-azaspiro[3.3]heptan-6-yl)amino)-3-methyl-1-oxoisoindolin-2-yl)methyl)benzo[d]oxazol-2(3H)-one]	–	–	–	A (A>3)	< 0.5	≤ 1.2	≥ 5
CC1c2cc(CN3CCC3)ccc2C(=O)N1Cc1ccc2[nH]c(=O)oc2c1 (single isomer, unassigned) [Compound 274]	–	–	–	B (3≥B>2)	5 to 50	1.2 to 1.5	≥ 5
CNCc1ccc2c(c1)C(=O)N(Cc1ccc3[nH]nnc3c1)C2Cc1c(Cl)cnn1C (centres unmarked) [Compound 422, 2-((1H-benzo[d][1,2,3]triazol-5-yl)methyl)-3-((4-chloro-1-methyl-1H-pyrazol-5-yl)methyl)-6-((methylamino)methyl)isoindolin-1-one]	5 to 50	1.2 to 1.5	≥ 5	B (3≥B>2)	–	–	–
